pEC50, pIC50: −log10 of the molar value. Like-named read-outs stand apart in the source and are kept apart here.
Key:
[1] = test system: P4 cell line; assay: Redox Stress Survival assay (BSO-induced cell death, Calcein AM viability); format: cell-based, human; details: for pEC50: 24 h, P4 cells, 200 µM BSO
Method: Cells were seeded at a density of 4 × 10^3 cells/well into 96-wells black plates and incubated for 24 h. To induce redox stress, semi-logarithmic dilutions of buthionine sulphoximine (BSO, #B2515, Sigma Aldrich) up to 100 µM were added to the cells in culture medium and incubated for 24 h. Cell viability was assessed by quantification of cellular conversion of Calcein AM into fluorescent Calcein. Briefly, after having discarded the BSO containing medium, cells were washed once with M199 without phenol red and loaded with 2 µM Calcein AM (#65-0853-39, Affimetrix eBioscience) in M199 without phenol red for 25 min. At the end of the incubation period, the excess of the dye was washed with M199 without phenol red and Calcein fluorescence was measured with a scanning microplate reader (BMG FLUOstar Omega; Ex. 480 nm, Em. 520 nm). For compound screening and target identification measurements cells were treated with 200 µM BSO alone or in co-incubation with semi-logarithmic dilutions of the test compound. Additionally, where indicated, increasing doses of Auranofin (AFN, #BML-EI206-0100, Enzo) or Aurothioglucose (ATG, #A0606, Sigma Aldrich) were co-incubated with BSO and the test compound. In all cases, cell viability was assessed 24 h after the treatment.

[2] = test system: P4 cell line; assay: Radical-Scavenging Capacity assay (CM-H2DCFDA, H2O2 or KO2); format: cell-based, human; details: P4 cells, 100 µM H2O2 or 1 mM KO2 (text: KOH), 3 µM compound
Method: Cells were seeded at a density of 4 × 10^3 cells/well into 96-wells black plates. After 24 h the cells were loaded with 5 µM CM-H2DCFDA in M199 without phenol red for 20 min. The dye excess was washed with M199 without phenol red and immediately after, cells were treated acutely with different concentrations of the test compounds in M199 without phenol red. To generate radicals, 100 µM H2O2 or 1 mM KO2 were injected to the compound-treated cells and CM-DCF fluorescence was measured every 2 min for 70 cycles on a scanning microplate reader (BMG FLUOstar Omega; Ex. 480 nm, Em. 520 nm). The area under the generated curves was calculated using the Origin 6.1 software (OriginLab).

[3] = test system: primary human skin fibroblasts; assay: Mitochondrial superoxide detection by mitoSOX oxidation; format: cell-based; details: 30 min preincubation, no external stimulus
Method: The cells were seeded at a density of 3 × 10^3 cells/well into 96-wells black plates. After 24 h, the cells were incubated with different amounts of KH176(m) in M199 without phenol red. This medium was used in all subsequent washes and incubations. After 30 min. incubation the cells were washed and subsequently incubated 1 µM mitoSOX (#M36008, ThermoFisher). […] After 10 min incubation the cells were washed twice and incubated for 30 min. to allow the accumulation of oxidized mitoSOX in the mitochondria. […] Wells with cells but without mitoSOX were used for background correction. Experiments were performed at least three times with 3 wells per experiment.

[4] = test system: primary human skin fibroblasts; assay: CumOOH induced lipid peroxidation (bodipy 581/591 C11); format: cell-based; details: Homo sapiens, Skin fibroblast; 30 µM cumOOH, bodipy 581/591 C11
Method: The cells were seeded at a density of 3 × 10^3 cells/well into 96-wells black plates. After 24 h, the cells were coincubated with 500 nM bodipy 581/591 C11 (#D3861, Thermo Fisher) and different amounts of KH compound in M199 without phenol red. This medium was used in all subsequent washes and incubations. After 30 min. incubation the cells were washed twice and subsequently incubated with 30 μM cumene hydroperoxide (cumOOH). For background subtractions cells with the dye but without cumOOH were used. After 30 minutes incubation and two washes oxidized bodipy 581/591 C11 was quantified on an automated bioimager (BD Pathway 855), by using a 20x objective and Ex. 488/10 nm, Em. FURA/FITC. Total cellular fluorescence per well was normalized on the number of cellular pixels/well and normalized on the incubation with probe and cumOOH but without compound (vehicle set as 100%). Experiments were performed at least three times with 3 wells per experiment.

[5] = Single dose pharmacokinetics and bioavailability study; format: in vivo, male C57BL/6 mice; details: male, mouse
Method: (§1) Pharmacokinetics and toxicokinetics measurements were performed by the commercial Contract Research Organizations Sai Life Sciences and WuXi AppTec, respectively, according to their standard protocols and in accordance with relevant guidelines and regulations. C57 BL/6 mice, Sprague Dawley rats, and Beagle dogs were studied.

[6] = 28-day repeat oral dose toxicity study, toxicokinetics; format: in vivo, Sprague Dawley rats; details: Sprague Dawley, rat, plasma, po; for AUC(0-t): read-out: AUC0–24 h; for Cmax: read-out: Cmax
Method: as §1

[7] = C57BL/6, iv, KH176 2 mg/kg i.v., plasma
[8] = C57BL/6, po, KH176 10 mg/kg p.o., plasma
[9] = female, 25 mg/kg, KH176 25 mg/kg/dose BID oral, F, Day 1, plasma
[10] = female, 25 mg/kg, KH176 25 mg/kg/dose BID oral, F, Day 28, plasma
[11] = female, 75 mg/kg, KH176 75 mg/kg/dose BID oral, F, Day 1, plasma
[12] = female, 75 mg/kg, KH176 75 mg/kg/dose BID oral, F, Day 28, plasma
[13] = female, 250 mg/kg, KH176 250 mg/kg/dose BID oral, F, Day 1, plasma
[14] = female, 250 mg/kg, KH176 250 mg/kg/dose BID oral, F, Day 28, plasma
[15] = male, 25 mg/kg, KH176 25 mg/kg/dose BID oral, M, Day 1, plasma
[16] = male, 25 mg/kg, KH176 25 mg/kg/dose BID oral, M, Day 28, plasma
[17] = male, 75 mg/kg, KH176 75 mg/kg/dose BID oral, M, Day 1, plasma
[18] = male, 75 mg/kg, KH176 75 mg/kg/dose BID oral, M, Day 28, plasma
[19] = male, 250 mg/kg, KH176 250 mg/kg/dose BID oral, M, Day 1, plasma
[20] = male, 250 mg/kg, KH176 250 mg/kg/dose BID oral, M, Day 28, plasma

Kp ([5]; C57BL/6, brain, iv, KH176 2 mg/kg i.v., read-out: Brain to Plasma ratio, range (1–8 hours)): 1 to 25
Kp ([5]; C57BL/6, brain, po, KH176 10 mg/kg p.o., read-out: Brain to Plasma ratio, range (1–8 hours)): 0.4 to 0.8
Kp ([5]; C57BL/6, heart, iv, KH176 2 mg/kg i.v., read-out: Heart to Plasma ratio, range (1–8 hours)): 4.3 to 28.3
Kp ([5]; C57BL/6, heart, po, KH176 10 mg/kg p.o., read-out: Heart to Plasma ratio, range (1–8 hours)): 2.4 to 5.7
AUC(0-inf) [5, 7]: 0.191 µg·h/mL
AUC(0-t) [5, 7]: 0.181 µg·h/mL
clearance [5, 7]: 10.5 L/h/kg
half-life [5, 7]: 1.4 h
C0 ([5]; C57BL/6, iv, KH176 2 mg/kg i.v., plasma, back extrapolated): 0.543 µg/mL
Kp ([5]; C57BL/6, liver, iv, KH176 2 mg/kg i.v., read-out: Liver to Plasma ratio, range (1–8 hours)): 10.5 to 29.3
Kp ([5]; C57BL/6, liver, po, KH176 10 mg/kg p.o., read-out: Liver to Plasma ratio, range (1–8 hours)): 5.7 to 12.1
Vd ([5]; C57BL/6, plasma, iv, KH176 2 mg/kg i.v., read-out: Vss): 9.5 L/kg
bioavailability ([5]; C57BL/6, plasma, oral, 10 mg/kg p.o. vs 2 mg/kg i.v., from AUClast, read-out: F (oral bioavailability)): 68%
AUC(0-inf) [5, 8]: 0.624 µg·h/mL
AUC(0-t) [5, 8]: 0.618 µg·h/mL
Cmax [5, 8]: 0.414 µg/mL
Tmax ([5]; C57BL/6, po, KH176 10 mg/kg p.o., plasma, read-out: Tmax): 0.25 h
Kp ([5]; C57BL/6, skeletal muscle, iv, KH176 2 mg/kg i.v., read-out: Skeletal muscle to Plasma ratio, range (1–8 hours)): 8.7 to 20.1
Kp ([5]; C57BL/6, skeletal muscle, po, KH176 10 mg/kg p.o., read-out: Skeletal muscle to Plasma ratio, range (1–8 hours)): 0.8 to 5.2
SMILES: Cc1c(C)c2c(c(C)c1O)CC[C@@](C)(C(=O)N[C@@H]1CCCNC1)O2.Cl [KH176, (S)-6-hydroxy-2,5,7,8-tetramethyl-N-((R)-piperidin-3-yl)chroman-2-carboxamide hydrochloride]
pEC50 ([1]; Homo sapiens): 6.57
pEC50 [1]: 6.57
Viability of patient cells under BSO ([1]; increasing BSO 24 h, 3 µM compound): fully protected
Reduction of H2O2-induced radicals and O2.- (CM-H2DCFDA oxidation) [2]: able to reduce the levels of both radicals
Potency on mitochondrial superoxide levels (mitoSOX) [3]: much less potent
pIC50 [4]: 4.19
half-life [6, 9]: 2.6 h
AUC(0-t) [6, 9]: 12.5 µg·h/mL
Cmax [6, 9]: 1.36 µg/mL
half-life [6, 10]: 3.2 h
AUC(0-t) [6, 10]: 19 µg·h/mL
Cmax [6, 10]: 2.27 µg/mL
half-life [6, 11]: 8.4 h
AUC(0-t) [6, 11]: 42.4 µg·h/mL
Cmax [6, 11]: 3.05 µg/mL
half-life [6, 12]: 6 h
AUC(0-t) [6, 12]: 76.9 µg·h/mL
Cmax [6, 12]: 5.34 µg/mL
AUC(0-t) [6, 13]: 104 µg·h/mL
Cmax [6, 13]: 6.97 µg/mL
AUC(0-t) [6, 14]: 243 µg·h/mL
Cmax [6, 14]: 13.3 µg/mL
half-life [6, 15]: 2.4 h
AUC(0-t) [6, 15]: 10.5 µg·h/mL
Cmax [6, 15]: 0.979 µg/mL
half-life [6, 16]: 5.6 h
AUC(0-t) [6, 16]: 15.6 µg·h/mL
Cmax [6, 16]: 1.6 µg/mL
half-life [6, 17]: 4.5 h
AUC(0-t) [6, 17]: 33.1 µg·h/mL
Cmax [6, 17]: 2.86 µg/mL
AUC(0-t) [6, 18]: 46.2 µg·h/mL
Cmax [6, 18]: 4.21 µg/mL
AUC(0-t) [6, 19]: 94 µg·h/mL
Cmax [6, 19]: 5.89 µg/mL
half-life [6, 20]: 8.3 h
AUC(0-t) [6, 20]: 157 µg·h/mL
Cmax [6, 20]: 11.2 µg/mL
